Laboratory results taken from patent publication US6617124B1, “7-alkoxycoumarins as cytochrome p450 substrates” (SmithKline Beecham p.l.c., priority 1998, dated 2003).

CNCc1cc(=O)oc2cc(OC)ccc12
melting point: 109 to 109.5 °C

COc1ccc2c(CN(C)C)cc(=O)oc2c1
melting point: 97 °C
